Assay results taken from patent publication US20050090551A1, “Therapeutic use of methionine for the treatment or prevention of mucositis” (Board of Trustees of Southern Illinois University, priority 2003, published 2005).
Structures can show the parent of a compound that is named as a salt.

What was measured:
[1] = test system: CDDP nephrotoxicity; details: literature reports; cited from earlier work
[2] = test system: CDDP anti-tumor action; details: literature reports; cited from earlier work
[3] = test system: Walker 256 carcinosarcoma in the rat; details: Jones and Basinger; cited from earlier work
[4] = test system: Human salivary gland epithelial cells; details: various concentrations of D-methionine (1.0-0.1 mg/ml) six hours prior to 10 Gy; after 24 Hrs
From the text: One set was untreated as a control and another was irradiated with 10 Gy the following morning.

[5] = test system: male Wistar rats; details: 75, 150 or 300 mg/kg D-methionine prior to 16 mg/kg CDDP
[6] = test system: male Wistar rats
[7] = test system: male Wistar rats; remark: listed apart in the source
[8] = test system: tumor bearing animals; details: pre or post treatment, 150 mg/Kg x5, i.p.
[9] = test system: male Wistar rats; assay: Auditory Brainstem Testing (ABR) thresholds in CDDP-treated rats; format: in vivo, rat
[10] = test system: mice; details: 6 Gy/day for five days
Method: The experiment was conducted using a mouse model of radiation-induced lip erythema. Four groups of mice (n=5) were used. The first group (Group A) was an untreated, control group. The second group (Group B) was irradiated with ionizing radiation (6 Gy/day) for 5 days.

[11] = test system: CDDP-induced weight loss; details: literature reports; cited from earlier work
[12] = test system: patients; details: cited from earlier work
[13] = test system: hamsters; details: Church et al; cited from earlier work
[14] = test system: NHIK 3025 in vitro human uterine cervix carcinoma in situ cancer cells; details: preadministration of methionine, presumably a racemic mixture; cited from earlier work
[15] = test system: CDDP ototoxicity; details: animals; literature reports; cited from earlier work

Structure (SMILES): O=C(O)CCCC[C@@H]1SC[C@@H]2NC(=O)N[C@@H]21 [Biotin]
- CDDP nephroprotection [1]: good CDDP nephroprotection
- effect on CDDP anti-tumor action [2]: inhibits anti-tumor activity

Structure (SMILES): CSCC[C@@H](N)C(=O)O [D-methionine]
- CDDP nephroprotection [1]: highly effective CDDP nephroprotection
- effect on CDDP anti-tumor action [3]: does not inhibit CDDP anti-tumor action
- effect on CDDP anti-tumor action [2]: without decreasing anti-tumor action
- apoptosis (cells having an apoptotic phenotype) [4]: about 20%
- outer hair cell findings, middle and basal turns [5]: only the treated control group showed significantly different findings from the untreated control group
- alopecia: coat and hair loss vs control group animals ([6]; D-methionine prior to 16 mg/kg CDDP): significantly less hair loss
- animals surviving to the end of the study period ([6]; any level of D-methionine prior to 16 mg/kg CDDP): 15/15
- neuroprotection: activity and coordination vs surviving treated controls ([6]; morning of the third day, D-methionine prior to 16 mg/kg CDDP): noticeably more lively, active, and coordinated
- weight loss vs treated control group ([7]; 300 mg/kg D-methionine prior to 16 mg/kg CDDP, 3 days): significantly less than that in the treated control group
- CDDP-induced weight loss, dose dependence ([7]; 75, 150, 300 mg/kg D-methionine prior to 16 mg/kg CDDP): diminished as D-methionine dosing increased
- interference with antitumor activity of ionizing radiation [8]: did not interfere with antitumor activity of ionizing radiation
- animals with complete otoprotection (no significant ABR threshold shift for any stimulus) ([9]; 75 mg/kg D-methionine i.p. 30 minutes prior to 16 mg/kg CDDP, 3 days later): 2/5
- animals with complete otoprotection (no significant ABR threshold shift for any stimulus) ([9]; 150 mg/kg D-methionine i.p. 30 minutes prior to 16 mg/kg CDDP, 3 days later): 3/5
- animals with complete otoprotection for all stimulus conditions ([9]; 300 mg/kg D-methionine i.p. 30 minutes prior to 16 mg/kg CDDP, group of 5, 3 days later): 5
- post-test ABR thresholds vs treated control group, all stimuli ([9]; any level of D-methionine (75, 150, 300 mg/kg) prior to 16 mg/kg CDDP): significantly lower ABR thresholds than the treated control group
- lip erythema, post-treatment ([10]; 150 mg/kg one hour after irradiation): prevented the occurrence of lip erythema
- lip erythema, pre-treatment ([10]; 150 mg/kg six hours prior to irradiation): prevented the occurrence of lip erythema

Structure (SMILES): CSCC[C@H](N)C(N)=O [L-methioninamide]
- CDDP nephroprotection [1]: excellent CDDP nephroprotection
- effect on CDDP anti-tumor action [2]: impairs CDDP anti-tumor action

Structure (SMILES): CC1(C)S[C@@H]2[C@H](NC(=O)Cc3ccccc3)C(=O)N2[C@H]1C(=O)[O-].[Na+] [sodium salt of penicillin G, penicillin G]
- CDDP nephroprotection [1]: does not protect against CDDP nephrotoxicity or weight loss
- protection against CDDP-induced weight loss [11]: does not protect against CDDP nephrotoxicity or weight loss

Structure (SMILES): Cc1ncc(C[n+]2csc(CCO)c2C)c(N)n1 [thiamine-HCl]
- CDDP nephroprotection [1]: does not protect against cisplatin nephrotoxicity or weight loss
- protection against CDDP-induced weight loss [11]: does not protect against cisplatin nephrotoxicity or weight loss

Structure (SMILES): CSc1ncccc1C(=O)O [2-(methylthio)nicotinic acid]
- CDDP nephroprotection [1]: does not provide nephroprotection

Structure (SMILES): Nc1ccc(S(=O)(=O)Nc2nccs2)cc1 [Sulfathiazole]
- CDDP nephroprotection [1]: provides protection against CDDP nephrotoxicity
- protection against CDDP-induced weight loss [11]: not weight loss

Structure (SMILES): CC(S)C(=O)NCC(=O)O (stereo not drawn) [N-(2-mercapto-propionyl)glycine]
- CDDP nephroprotection [1]: exacerbate CDDP nephrotoxicity

Structure (SMILES): NCCCNCCSP(=O)(O)O [WR2721]
- CDDP nephroprotection [1]: excellent CDDP nephroprotection
- patients with mild to severe hearing loss ([12]; WR2721 prior to CDDP, Glover et al.): 20 of 36
- incidence of significant hearing threshold shift ([12]; patients pretreated with WR2721 prior to CDDP, Rubin et al.): 45%
- protection from ototoxicity or mortality [13]: no WR2721 protection from ototoxicity or mortality

Structure (SMILES): CO[C@@]1(NC(=O)Cc2cccs2)C(=O)N2C(C(=O)O)=C(COC(N)=O)CS[C@@H]21 [cefoxitin]
- CDDP nephroprotection [1]: does not provide nephroprotection
- protection against CDDP-induced weight loss [11]: some protection against CDDP-induced weight loss

Structure (SMILES): C[C@H](CS)C(=O)N1CCC[C@H]1C(=O)O [Captropril]
- CDDP nephroprotection [1]: protects against CDDP nephrotoxicity

Structure (SMILES): CC1=C(C(=O)O)N2C(=O)[C@@H](NC(=O)[C@H](N)c3ccccc3)[C@H]2SC1 [Cephalexin]
- protection against CDDP-induced weight loss [11]: protects against CDDP-induced kidney dysfunction and weight loss

Structure (SMILES): CCOC(=O)[C@@H](N)CS [Ethyl-L-cysteinate]
- CDDP nephroprotection [1]: exacerbate CDDP nephrotoxicity

Structure (SMILES): CSCC[C@H](N)C(=O)O (racemic) [methionine]
- effect on CDDP cytotoxicity [14]: sensitized

Structure (SMILES): O=S([O-])([O-])=S.[Na+].[Na+] [STS, sodium thiosulfate]
- CDDP nephroprotection [1]: reduces CDDP nephrotoxicity and ototoxicity
- CDDP otoprotection [15]: good CDDP otoprotection
- effect on CDDP anti-tumor action [2]: reduces the latter's tumoricidal action
